This passage reports IC50 results from patent publication US8314098B2, “Pyrazolo-pyrimidine compounds” (Ajinomoto Co., Inc., priority 2008, dated 2012).

What all share (type): cell-based
Experiment [1] relates to IL-12p70 (the complex of IL-12p35 and p40). Briefly: IL-12p70 production inhibition in macrophages derived from mouse abdomen (IFN-γ/SAC stimulation, ELISA). The note with it: Macrophage; mouse (Balb/c) abdominal macrophages, 100 ng/mL mouse IFN-γ + 0.05% SAC, overnight; TFA salts tested where prepared as such; read-out: IL-12p70-Inhibitory Activity IC50. How it is done:
(§1) One milliliter each of a 3% (w/v) thioglycolate solution was intraperitoneally administered to mice (female Balb/c mice), the abdominal cells of each mouse were recovered after 5 or 6 days from the administration of the thioglycolate solution and the adhesive cells were collected and used in the exaluation procedures. To a culture medium containing such adhesive cells, there were added 100 ng/mL of mouse interferon-γ and a 0.05% (v/v) liquid containing killed cells derived from Staphylococcus aureus Cowan I strain (SAC) and a candidate compound and then the mixture was cultivated overnight. After the completion of the cultivation, the survival ratios were determined, there were quantitatively determined the quantities of IL-12p70 (the complex of IL-12p35 and p40) and IL-12p40 or TNF-α according to the ELISA assays while making use of the recovered supernatant of the culture medium and the 50% production-inhibitory concentration (IC50) was calculated for each case (see Table 1 and Tables 1-9 for IL-12p70 and TNF-α and Tables 1 to 10 for IL-12p40).

For another experiment, the system named is TNF-α. Briefly: TNF-α production inhibition in macrophages derived from mouse abdomen (IFN-γ/SAC stimulation, ELISA). The note with it: Macrophage; mouse (Balb/c) abdominal macrophages, 100 ng/mL mouse IFN-γ + 0.05% SAC, overnight; TFA salts tested where prepared as such; read-out: TNF-α-Inhibitory Activity IC50. As to the method:
as §1

Experiment [2] has as its system IL-12p70 (the complex of IL-12p35 and p40). Put plainly: IL-12p70 production inhibition in whole blood of mouse (IFN-γ/SAC stimulation, ELISA). The settings on record: mouse (Balb/c) whole blood, EDTA, 100 ng/mL mouse IFN-γ + 1.25% SAC, overnight; TFA salts tested where prepared as such. How it is done:
The blood was recovered from the mice (female Balb/c mice) (containing added EDTA) and it was used for the evaluation. To a cell culture medium, there were added 100 ng/mL of mouse interferon-γ, 1.25% (v/v) of a liquid containing killed cells derived from Staphylococcus aureus Cowan I strain (SAC) and a candidate compound, the resulting mixture was diluted to a volume equivalent to the blood and then the diluted medium was cultivated overnight. After the completion of the cultivation, the amount of IL-12p70 (the complex of IL-12p35 and p40) was quantitatively determined according to the ELISA assays while making use of the recovered supernatant of the culture medium and the 50% production-inhibitory concentrations (IC50) were calculated for Compounds 38, 80, 82, 83, 84, 85, 87, 90 and 91. (see Table 3).
(In general: In an ELISA, binding on a coated surface is turned into a signal by an enzyme label.)

A word on the IC50: it is the concentration needed to halve the response being measured. Take `Cc1cccc(/C=N/Nc2cc(N3CCOCC3)n3nc(-c4ccc(N5CCN(C(=O)OC(C)(C)C)CC5)cc4)cc3n2)c1` [Compound 19, N-[2-{4-(4-t-butoxycarbonyl-piperazin-1-yl)-phenyl}-7-morpholin-4-yl-pyrazolo[1,5-a]pyrimidin-5-yl]-N′-(3-methyl-benzylidene)-hydrazine]: the values for the IC50 (in experiment [1]; with TNF-α) were 60 nM and > 10000 nM, respectively. The like results for `Cc1cccc(/C=N/Nc2cc(N3CCOCC3)n3nc(-c4ccccn4)cc3n2)c1` [Compound 20, N-(3-methyl-benzylidene)-N′-(7-morpholin-4-yl-2-pyridin-2-yl-pyrazolo[1,5-a]pyrimidin-5-yl)-hydrazine] were, in that order, 8 nM and > 10000 nM. For the compound `Cc1cccc(/C=N/Nc2cc(N3CCOCC3)n3nc(-c4ccc(N5CCNCC5)cc4)cc3n2)c1` [Compound 21, N-(3-methyl-benzylidene)-N′-{7-morpholin-4-yl-2-(4-piperazin-1-yl-phenyl)-pyrazolo[1,5-a]pyrimidin-5-yl}-hydrazine], the IC50 in experiment [1] was 22 nM; in the experiment with TNF-α it was > 10000 nM. As for `CC(=O)N1CCN(c2ccc(-c3cc4nc(N/N=C/c5cccc(C)c5)cc(N5CCOCC5)n4n3)cc2)CC1` [Compound 22, N-[2-{4-(4-acetyl-piperazin-1-yl)-phenyl}-7-morpholin-4-yl-pyrazolo[1,5-a]pyrimidin-5-yl]-N′-(3-methyl-benzylidene)-hydrazine], the results for the IC50 (in experiment [1]; in the experiment on TNF-α) were 5 nM and > 10000 nM, respectively.

On to `CCN(CC)c1ccc(-c2cc3nc(N/N=C/c4cccc(C)c4)cc(N4CCOCC4)n3n2)cc1` [Compound 23, N-{2-(4-diethyl-amino-phenyl)-7-morpholin-4-yl-pyrazolo-[1,5-a]pyrimidin-5-yl}-N′-(3-methyl-benzylidene)-hydrazine], for which the IC50 is 14 nM in experiment [1] and > 10000 nM with TNF-α. The like results for `COCCNc1ccc(-c2cc3nc(N/N=C/c4cccc(C)c4)cc(N4CCOCC4)n3n2)cc1` [Compound 24, N-[2-{4-(2-methoxy-ethyl-amino)-phenyl}-7-morpholin-4-yl-pyrazolo[1,5-a]pyrimidin-5-yl]-N′-(3-methyl-benzylidene)-hydrazine] were, in that order, 6 nM and > 10000 nM. The corresponding values for `COc1cccc(/C=N/Nc2cc(N3CCOCC3)n3nc(-c4ccccc4)cc3n2)c1` [Compound 29, N-(3-methoxy-benzylidene)-N′-(7-morpholin-4-yl-2-phenyl-pyrazolo[1,5-a]pyrimidin-5-yl)-hydrazine] are 40 nM and > 10000 nM. The like results for `CCCCC(=O)N1CCN(c2ccc(-c3cc4nc(N/N=C/c5cccc(C)c5)cc(N5CCOCC5)n4n3)cc2)CC1` [Compound 31, N-(3-methyl-benzylidene)-N′-{7-morpholin-4-yl-2-[4-(1-oxo-pentan-1-yl)piperazin-1-yl-phenyl]-pyrazolo[1,5-a]pyrimidin-5-yl}-hydrazine] were, in that order, 18 nM and > 10000 nM. In the case of `Cc1cccc(CNNc2cc(N3CCOCC3)n3nc(-c4ccccc4)cc3n2)c1` [Compound 34, N-(3-methyl-benzyl)-N′-(7-morpholin-4-yl-2-phenyl-pyrazolo[1,5-a]pyrimidin-5-yl)-hydrazine], the IC50 in experiment [1] is 24 nM; in the experiment on TNF-α, > 10000 nM. The corresponding values for `C(=N\Nc1cc(N2CCOCC2)n2nc(-c3ccccn3)cc2n1)/c1c[nH]c2ccccc12` [Compound 36, N-(1H-indol-3-yl-methylidene)-N′-(7-morpholin-4-yl-2-pyridin-2-yl-pyrazolo[1,5-a]pyrimidin-5-yl)-hydrazine] are 7 nM and > 10000 nM. In the case of `COc1ccc(C)cc1/C=N/Nc1cc(N2CCOCC2)n2nc(-c3ccccc3)cc2n1` [Compound 40, N-(2-methoxy-5-methyl-benzylidene)-N′-(7-morpholin-4-yl-2-phenyl-pyrazolo[1,5-a]pyrimidin-5-yl)-hydrazine], the IC50 is 64 nM in experiment [1] and > 10000 nM in the experiment with TNF-α. The corresponding values for `Cc1cccc(/C=N/Nc2cc(N3CCOCC3)n3nc(-c4ccc(NN5CCOCC5)cc4)cc3n2)c1` [Compound 68] are 8.7 nM and > 10000 nM. The like results for `Cc1cccc(/C=N/Nc2cc(N3CCOCC3)n3nc(-c4ccc(N5CCSCC5)cc4)cc3n2)c1` [Compound 69, N-(3-methyl-benzylidene)-N′-{7-morpholin-4-yl-2-(4-thiomorpholin-4-yl-phenyl)-pyrazolo[1,5-a]pyrimidin-5-yl}-hydrazine] were, in that order, 8.2 nM and > 10000 nM. The like results for `Cc1cccc(/C=N/Nc2cc(N3CCOCC3)n3nc(C)cc3n2)c1` [Compound 79, N-(3-methyl-benzylidene)-N′-(2-methyl-7-morpholin-4-yl-pyrazolo[1,5-a]pyrimidin-5-yl)-hydrazine] were, in that order, 220 nM and > 10000 nM.

As to `CCOC(=O)c1cc2nc(N/N=C/c3cccc(C)c3)cc(N3CCOCC3)n2n1` [Compound 81, N-(2-ethoxycarbonyl-7-morpholin-4-yl-pyrazolo[1,5-a]-pyrimidin-5-yl)-N′-(3-methyl-benzylidene)-hydrazine], the figures for the IC50 (in experiment [1]; in the experiment on TNF-α) were 55 nM and > 10000 nM, respectively. As for `Cc1cccc(/C=N/Nc2cc(N3CCOCC3)n3ncc(-c4ccccn4)c3n2)c1` [Compound 87, N-(3-methyl-benzylidene)-N′-(7-morpholin-4-yl-3-pyridin-2-yl-pyrazolo[1,5-a]pyrimidin-5-yl)-hydrazine], the IC50 in experiment [2] was found to be 2400 nM. In the case of `C(=N\Nc1cc(N2CCOCC2)n2ncc(-c3ccccn3)c2n1)/c1c[nH]c2ccccc12` [Compound 88, N-(1H-indol-3-yl-methylidene)-N′-(7-morpholin-4-yl-3-pyridin-2-yl-pyrazolo[1,5-a]pyrimidin-5-yl)-hydrazine], the results for the IC50 (in experiment [1]; in the experiment with TNF-α) were 420 nM and > 10000 nM, respectively. Turning to `Cc1cccc(/C=N/Nc2cc(N3CCOCC3)n3nc(-c4cnccn4)cc3n2)c1` [Compound 90, N-(3-methyl-benzylidene)-N′-(7-morpholin-4-yl-2-pyrazin-2-yl-pyrazolo[1,5-a]pyrimidin-5-yl)-hydrazine], the values for the IC50 in experiment [2] and in experiment [1] were 2500 nM and 8.3 nM, respectively. The corresponding values for `C(=N\Nc1cc(N2CCOCC2)n2nc(-c3ccncc3)cc2n1)/c1ccsc1` [Compound 91, N-(7-morpholin-4-yl-2-pyridin-4-yl-pyrazolo[1,5-a]-pyrimidin-5-yl)-N′-thiophen-3-yl-methylidene-hydrazine] are 4600 nM and 48 nM. The corresponding values for `Cc1cccc(/C=N/Nc2cc(N3CCOCC3)n3nc(-c4ccnnc4)cc3n2)c1` [Compound 94, N-(3-methyl-benzylidene)-N-(7-morpholin-4-yl-2-pyridazin-4-yl-pyrazolo[1,5-a]pyrimidin-5-yl)-hydrazine] are 1000 nM and 18 nM. The corresponding values for `C(=N\Nc1cc(N2CCOCC2)n2nc(-c3ccncc3)cc2n1)/c1coc2ccccc12` [Compound 95] are 810 nM and 28 nM. On to `C(=N\Nc1cc(N2CCOCC2)n2nc(-c3ccncc3)cc2n1)/c1cc2ccccc2o1` [Compound 96], for which the IC50 is 1100 nM in experiment [2] and 50 nM in experiment [1]. The corresponding values for `C(=N\Nc1cc(N2CCOCC2)n2nc(-c3ccnnc3)cc2n1)/c1c[nH]c2ccccc12` [Compound 97, N-(1H-indol-3-yl-methylidene)-N-(7-morpholin-4-yl-2-pyridazin-4-yl-pyrazolo[1,5-a]pyrimidin-5-yl)-hydrazine] are 3200 nM and 8.3 nM.

For the compound `C(=N\Nc1cc(N2CCOCC2)n2nc(-c3ccncc3)cc2n1)/c1ccc2[nH]ccc2c1` [Compound 104], the IC50 in experiment [2] is 2500 nM; in experiment [1] it was 100 nM. The corresponding values for `C(=N\Nc1cc(N2CCOCC2)n2nc(-c3ccncc3)cc2n1)/c1cc2ccccc2s1` [Compound 108, N-benzo[b]thiophen-2-yl-methylidene-N′-(7-morpholin-4-yl-2-pyridin-4-yl-pyrazolo[1,5-a]pyrimidin-5-yl)-hydrazine] are 3700 nM and 110 nM. On to `Nc1cccc(/C=N/Nc2cc(N3CCOCC3)n3nc(-c4ccccc4)cc3n2)c1` [Compound 140, N-(3-amino-benzylidene)-N-(7-morpholin-4-yl-2-phenyl-pyrazolo[1,5-a]pyrimidin-5-yl)-hydrazine], for which the IC50 in experiment [1] was 170 nM; in the experiment with TNF-α, > 10000 nM.
